Measurements as given in patent publication US20080004290A1, “Anti-Cancer Agents” (THE UNIVERSITY OF QUEENSLAND, priority 2003, published 2008).
Where two headings read alike, the source gives them in different places.

Experiments:
[1] = system: NFF, neonatal foreskin fibroblasts; test: Cell survival assay (clonogenic survival, SRB), normal cells; assay type: cell-based, human; conditions: SRB
Procedure: (§1) The cytotoxicities of the compounds of the invention were determined by clonogenic survival of human cancer cells (MM96L, melanoma) and human normal cells (NFF, neonatal foreskin fibroblasts). Cells were incubated with the compounds at various concentrations of compound (0.01-10 μg/mL) for 24 hours, washed, and then grown for a further four days in the absence of hydroxamic acid before determining cell survival by cell count. The final readout involved staining with sulforhodamine B (SRB), a cost-effective method amenable to automation and high throughput analysis. At the technical level, “cell sensitivity” is often inferred from short term (1-2 day) observations such as apoptosis, which may not be a satisfactory model of clonogenic survival.
(§2) Cell Lines and Culture Medium. All cell lines used in this study have been described previously (Parsons et al., 1986; Todaro et al., 1980; Glenn et al., 2004). All cell lines were cultured in 10% heat-inactivated foetal calf serum (CSL, Australia) in RPMI 1640 medium supplemented with 100 U/mL penicillin, 100 μg/mL streptomycin, and 3 mM HEPES at 5% CO2, 99% humidity at 37° C. Primary human fibroblasts were obtained from neonatal foreskins and cultured in the above medium. Routine mycoplasma tests were performed using Hoechst stain^i and were always negative.
(§3) Cell Survival Assay. Cells were plated into 96-well microtitre plates at 5×10^3 cells/well, and allowed to adhere overnight. Test compounds were added to culture medium at the indicated concentrations, and plates incubated in the above conditions for 24 hours. Following this incubation period, compounds and media were removed, and replaced with fresh culture medium. Cells were then grown for a further 72 hours before assay using sulforhodamine B (SRB; Sigma, St. Louis, Mo.) as previously described. Briefly, the culture medium was removed from the 96-well microtitre plates and the plates washed twice with phosphate buffered saline (PBS), before the cells were fixed with methylated spirits for 15 minutes. The plates were then rinsed with tap water and the fixed cells stained with 50 μL/well of SRB solution (0.4% sulforhodamine B (w/v) in 1% (v/v) acetic acid) over a period of 1 hour. The SRB solution was then removed from the wells and the plates rapidly washed two times with 1% (v/v) acetic acid. Protein bound dye was then solubilised with the addition of 100 μL of 10 mM unbuffered Tris, and incubated for 15 min at 25° C. Plates were then read at 564 nm on a VERSA max tunable microplate reader (Molecular Devices, Sunnyvale, Calif.).

[2] = system: MM96L melanoma cells; test: Cell survival assay (clonogenic survival, SRB); assay type: cell-based, human; conditions: for SI (Selectivity Index = IC50 (NFF)/IC50 (MM96L)): NFF vs MM96L
Procedure: as §1, §2, §3

[3] = Table 6, IC50 (NFF)/IC50 (MM96L)
[4] = Homo sapiens, Fibroblast, NFF normal fibroblasts, 24 h with compound, further 72 h growth, read-out: IC50 (uM) NFF
[5] = Homo sapiens, MM96L, MM96L melanoma, 24 h with compound, further 72 h growth, SRB, read-out: IC50 (uM) MM96L
[6] = Homo sapiens, MM96L, most preferred compounds, exemplary examples, read-out: potency of IC50 against the MM96 melanoma cells
[7] = Table 5, 24 hours with compound, further growth, read-out: IC50 NFF
[8] = Table 5, 24 hours with compound, further growth, SRB, read-out: IC50 MM96L
[9] = Table 5, Selectivity Index = IC50 (NFF)/IC50 (MM96L)
[10] = NFF normal fibroblasts, 24 h with compound, further 72 h growth, read-out: IC50 (uM) NFF
[11] = MM96L melanoma, 24 h with compound, further 72 h growth, SRB, read-out: IC50 (uM) MM96L
[12] = Table 8, 24 hours with compound, further growth, read-out: IC50 (μM) NFF
[13] = Table 8, 24 hours with compound, further growth, SRB, read-out: IC50 (μM) MM96
[14] = Table 8, IC50 (NFF)/IC50 (MM96L)
[15] = Homo sapiens, Fibroblast, 24 h, Table 6, 24 hours with compound, further growth, read-out: IC50 (μM) NFF
[16] = Homo sapiens, MM96L, 24 h, Table 6, 24 hours with compound, further growth, SRB, read-out: IC50 (μM) MM96L

`CN(C)c1ccc(C(=O)N[C@@H](CSCCCC(=O)NO)C(=O)NCCc2ccccc2)cc1` [Example 83] gave an IC50 ([1]; Table 6, 24 hours with compound, further growth, read-out: IC50 (μM) NFF) of 2.7 ± 0.3 µM, an IC50 ([2]; Table 6, 24 hours with compound, further growth, SRB, read-out: IC50 (μM) MM96L) of 1.4 ± 0.1 µM and a Selectivity [2, 3] of 1.9.

`O=C(CCCCC[C@H](NC(=O)Cc1c[nH]c2ccccc12)C(=O)NCc1ccccc1)NO` [Example 162] was tested, and the IC50 [1, 4] was over 2.22 µM, the IC50 [2, 5] was 0.332 µM and the IC50 [2, 6] was at most 0.5 µM. For the same molecule, the “SI (Selectivity Index = IC50 (NFF)/IC50 (MM96L))” value [2] was over 7.

Molecule `O=C(CCCSC[C@H](NC(=O)c1cccs1)C(=O)NCc1ccccc1)NO` [Example 33] has an IC50 [1, 7] of 9 ± 1 µM, an IC50 [2, 8] of 2.5 ± 0.2 µM and a Selectivity [2, 9] of 3.6.

In the case of `O=C(CCCCC[C@H](NC(=O)C12CC3CC(CC(C3)C1)C2)C(=O)NCc1ccccc1)NO` [Example 139], the IC50 [1, 10] is reported as 7.13 µM, the IC50 [2, 11] is reported as 3.95 µM and the “SI (Selectivity Index = IC50 (NFF)/IC50 (MM96L))” value [2] is reported as 1.8.

`O=C(/C=C/c1ccccc1)N[C@@H](CSCCCC(=O)NO)C(=O)NCc1ccccc1` [Example 48] showed an IC50 [1, 7] of 0.8 ± 0.2 µM, an IC50 [2, 8] of 0.2 ± 0.1 µM and a Selectivity [2, 9] of 4.0.

With `CN(C)c1ccc(C(=O)N[C@@H](CSCCCC(=O)NO)C(=O)NCc2ccc(C(=O)Nc3ccncc3)cc2)cc1` [Example 107] the IC50 [1, 12] was 16.9 µM, the IC50 [2, 13] was 2.96 µM and the Selectivity [2, 14] was 5.7.

Molecule `CN(C)c1ccc(C(=O)NC(CSCCCC(=O)NO)C(=O)NCc2ccc(C(=O)NC(c3ccccc3)C(O)c3ccccc3)cc2)cc1` (stereo not shown) [Example 112] has an IC50 [1, 12] of 14.3 µM, an IC50 [2, 13] of 2.87 µM and a Selectivity [2, 14] of 5.0.

`CN(C)c1ccc(C(=O)N[C@@H](CSCCCC(=O)NO)C(=O)NC2CCCC2)cc1` [Example 89] was tested, and the IC50 [1, 15] was 2.6 ± 0.3 µM, the IC50 [2, 16] was 1.5 ± 0.1 µM and the Selectivity [2, 3] was 1.7.

Work on `O=C(CCCCC[C@H](NC(=O)c1cc2c(O)cccc2[nH]1)C(=O)NCc1ccccc1)NO` [Example 166] yielded an IC50 [1, 4] of 2.21 µM, an IC50 [2, 5] of 0.331 µM and an IC50 [2, 6] of at most 0.5 µM. The “SI (Selectivity Index = IC50 (NFF)/IC50 (MM96L))” value [2] was 6.7.

In the case of `CN(C)c1ccc(C(=O)NC(CCCCCC(=O)NO)C(=O)NC2CCCc3ccccc32)cc1` (racemic) [Example 125], the IC50 [1, 10] is reported as 1.81 ± 0.07 µM, the IC50 [2, 11] is reported as 0.3 ± 0.1 µM and the “SI (Selectivity Index = IC50 (NFF)/IC50 (MM96L))” value [2] is reported as 6.0.

`O=C(/C=C/c1ccccc1)N[C@@H](CSCCCC(=O)NO)C(=O)NCc1cccnc1` [Example 101] showed an IC50 ([1]; Homo sapiens, Fibroblast, 24 h, Table 7, 24 hours with compound, further growth, read-out: IC50 (μM) NFF) of 13.2 ± 0.7 µM, an IC50 ([2]; Homo sapiens, MM96L, 24 h, Table 7, 24 hours with compound, further growth, SRB, read-out: IC50 (μM) MM96L) of 0.9 ± 0.2 µM and a Selectivity ([2]; Table 7, IC50 (NFF)/IC50 (MM96L)) of 15.1.

For `O=C(CCCSC[C@H](NC(=O)c1cccc2ccccc12)C(=O)NCc1ccccc1)NO` [Example 37], the IC50 [1, 7] was 5.3 ± 0.6 µM, the IC50 [2, 8] was 6.3 ± 0.6 µM and the Selectivity [2, 9] was 0.8.

`CN(C)c1ccc(C(=O)N[C@@H](CSCCCC(=O)NO)C(=O)NCc2ccccn2)cc1` [Example 82] was tested, and the IC50 [1, 15] was 6.5 ± 0.3 µM, the IC50 [2, 16] was 1.2 ± 0.1 µM and the Selectivity [2, 3] was 5.5.

With `O=C(CCCCC[C@H](NC(=O)c1cccs1)C(=O)NCc1ccccc1)NO` [Example 141] the IC50 [1, 4] was 5.2 µM, the IC50 [2, 5] was 0.892 µM and the “SI (Selectivity Index = IC50 (NFF)/IC50 (MM96L))” value [2] was 5.8.

With `CN(C)c1ccc(C(=O)N[C@@H](CCCCCC(=O)NO)C(=O)NCc2ccccc2)cc1` [Example 123] the IC50 [1, 10] was 1 ± 0.1 µM, the IC50 [2, 6] was at most 0.5 µM and the IC50 [2, 11] was 0.16 ± 0.08 µM. For the same molecule, the “SI (Selectivity Index = IC50 (NFF)/IC50 (MM96L))” value [2] was 6.0.

With `O=C(CCCSC[C@H](NC(=O)c1ccc(-c2ccccc2)cc1)C(=O)NCc1ccccc1)NO` [Example 25] the IC50 [1, 7] was 2.8 ± 0.2 µM, the IC50 [2, 8] was 0.9 ± 0.1 µM and the Selectivity [2, 9] was 3.1.

Work on `CN(C)c1ccc(C(=O)N[C@@H](CSCCCC(=O)NO)C(=O)NCc2ccc(C(=O)Nc3ccc(-c4ccccc4)cc3)cc2)cc1` [Example 111] yielded an IC50 [1, 12] of 1.11 µM, an IC50 [2, 13] of 0.51 µM and a Selectivity [2, 14] of 2.2.

With `CN(C)c1ccc(C(=O)N[C@@H](CSCCCC(=O)NO)C(=O)NCc2ccc(C(=O)Nc3ccc4ncccc4c3)cc2)cc1` [Example 116] the IC50 [1, 12] was 5.57 µM, the IC50 [2, 13] was 2.23 µM and the Selectivity [2, 14] was 2.5.

Work on `O=C(CCCCCC(NC(=O)C(Cc1ccccc1)NC(=O)Cc1c[nH]c2ccccc12)C(=O)NCc1ccccc1)NO` (stereo not shown) [Example 164] yielded an IC50 [1, 10] of 9.76 µM.
